The values that follow come from ChEMBL document CHEMBL5120778, “Jatrophane Diterpenoids with Kv1.3 Ion Channel Inhibitory Effects from Euphorbia helioscopia” (J Nat Prod, 2022).

pIC50: −log10 of the molar value.

A word on the inhibition: it is the share of the control response that was lost under treatment. By pIC50 is commonly meant the IC50 on a negative log10 scale, so that one unit is a factor of ten.

Data set [1] deals with T1, Potassium voltage-gated channel subfamily A member 3 (Homo sapiens, UniProt P22001). Nature of the data set: Inhibition of human Kv1.3 expressed in HEK293 cells assessed as inhibition of tetracyclin induced current at 1 uM at holding potential of -80 mV by patch clamp method relative to control. The data set is classed as cell-based. Background: The patch-clamp technique gives a direct electrical read-out from membranes.

Data set [2] concerns the target T1, Potassium voltage-gated channel subfamily A member 3. The data set can be described thus: Inhibition of human Kv1.3 expressed in HEK293 cells assessed as inhibition of tetracyclin induced current at 30 uM at holding potential of -80 mV by patch clamp method relative to control. It is filed as cell-based.
The subject of the next data set is HEK293. The data set can be described thus: Cytotoxicity against HEK293 cells assessed as reduction in cell proliferation at 30 uM. It is filed as toxicity, cell-based. The note with it: human, hek293, 30 µM.
For data set [3], the target named is T1, Potassium voltage-gated channel subfamily A member 3. The data set can be described thus: Inhibition of human Kv1.3 expressed in HEK293 cells assessed as inhibition of tetracyclin induced current at holding potential of -80 mV by patch clamp method. It is filed as cell-based.

T1 sequence (P22001 whole entry): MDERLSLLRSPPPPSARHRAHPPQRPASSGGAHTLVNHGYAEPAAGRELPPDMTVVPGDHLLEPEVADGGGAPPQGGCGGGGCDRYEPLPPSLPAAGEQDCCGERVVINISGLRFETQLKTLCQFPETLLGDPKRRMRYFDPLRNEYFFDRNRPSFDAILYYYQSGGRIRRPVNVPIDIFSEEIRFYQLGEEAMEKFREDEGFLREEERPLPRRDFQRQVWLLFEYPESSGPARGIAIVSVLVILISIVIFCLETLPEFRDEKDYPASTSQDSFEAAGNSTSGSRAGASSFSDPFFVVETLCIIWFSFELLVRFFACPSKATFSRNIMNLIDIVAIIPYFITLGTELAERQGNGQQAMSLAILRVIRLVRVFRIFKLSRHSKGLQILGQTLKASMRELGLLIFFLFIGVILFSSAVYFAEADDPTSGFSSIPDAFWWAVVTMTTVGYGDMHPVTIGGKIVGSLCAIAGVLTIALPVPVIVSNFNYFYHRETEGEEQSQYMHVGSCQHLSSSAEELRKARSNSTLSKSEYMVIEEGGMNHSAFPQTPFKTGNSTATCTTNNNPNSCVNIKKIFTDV

For `CC(=O)O[C@]12C[C@H](C)[C@H](OC(=O)c3ccccc3)[C@@H]1/C=C(\C)[C@H](O)CC(=O)C(C)(C)C/C=C(\C)C2=O`, the inhibition in data set [1] is 4.96%; in data set [2], 88.7%. Besides, the Activity entry in the data set with HEK293 is recorded as “Non-Toxic”.

For `CC(=O)O[C@@H]1C[C@@H](O)/C(C)=C/[C@H]2[C@@H](OC(=O)c3ccccc3)[C@@H](C)C[C@]2(OC(C)=O)C(=O)/C(C)=C/[C@H](O)C1(C)C`, the figures for the inhibition in data set [1] and in data set [2] were 7.36% and 84.4%, respectively. The Activity result with HEK293 was “Non-Toxic”.

For the molecule `CC(=O)O[C@@H]1C[C@@H](OC(C)=O)C(C)(C)[C@@H](O)/C=C(\C)C(=O)[C@@]2(OC(C)=O)C[C@H](C)[C@H](OC(=O)c3ccccc3)[C@@H]2/C=C/1C`, the results for the inhibition in data set [1] and in data set [2] were 57% and 98.6%, respectively. For the same molecule, in data set [3], the pIC50 is 6.05. Moreover, the Activity entry in the data set with HEK293 is given as “Non-Toxic”.

Take `CC(=O)O[C@@H]1C[C@@H](OC(C)=O)C(C)(C)[C@H](O)/C=C(\C)[C@H](OC(C)=O)[C@@]2(OC(C)=O)C[C@H](C)[C@H](OC(=O)c3ccccc3)[C@@H]2/C=C/1C`: the inhibition in data set [1] was determined as 50.4%; in data set [2], 93.7%. The negative logarithm of the IC50 (pIC50) in data set [3] was 6.05. Further, the Activity result in the data set on HEK293 is recorded as “Non-Toxic”.

For the molecule `CC(=O)O[C@@H]1[C@@H](C)/C=C/C(C)(C)C(=O)C[C@@H](OC(C)=O)/C(CO)=C/[C@H]2[C@@H](OC(=O)c3ccccc3)[C@H](C)C[C@]12OC(C)=O`, the inhibition stood at 5.94% in data set [1] and 96.9% in data set [2]. The Activity result in the data set on HEK293 is on record as “Non-Toxic”.

`CC(=O)O[C@@H]1[C@@H](C)/C=C/C(C)(C)[C@H](OC(C)=O)C[C@@H](OC(C)=O)/C(C)=C/[C@H]2[C@@H](OC(=O)c3ccccc3)[C@@H](C)C[C@]12OC(C)=O`: the inhibition in data set [1] came out at 8.34%; in data set [2] it was 90%. Further, in the data set with HEK293, the Activity entry is listed as “Non-Toxic”.

Turning to `CC(=O)O[C@@H]1CC(=O)/C(C)=C/[C@H]2[C@@H](OC(=O)c3ccccc3)[C@@H](C)C[C@]2(O)[C@@H](OC(C)=O)[C@@H](C)/C=C/C1(C)C`, the inhibition in data set [1] is 4.72%; in data set [2], 89.4%. In addition, the Activity result in the data set on HEK293 is listed as “Non-Toxic”.

Consider `CC(=O)O[C@@H]1[C@H](C)/C=C/C(C)(C)C(=O)C[C@@H](OC(=O)c2cccnc2)/C(C)=C/[C@H]2[C@@H](OC(=O)c3ccccc3)[C@H](C)C[C@]12OC(C)=O`, for which the values for the inhibition in data set [1] and in data set [2] were 10.5% and 95.3%, respectively. In addition, in the data set with HEK293, the Activity entry is “Non-Toxic”.

Turning to `CC(=O)O[C@@H]1C[C@@H](OC(C)=O)C(C)(C)/C=C/[C@H](C)[C@H](OC(C)=O)[C@@]2(O)C[C@H](C)[C@H](OC(=O)c3cccc(O)c3)[C@@H]2/C=C/1C`, the inhibition was found to be 6.16% in data set [1] and 74.4% in data set [2]. Also, in the data set with HEK293, the Activity result was “Non-Toxic”.

On to `CC(=O)O[C@]12C[C@@H](C)[C@H](OC(=O)c3ccccc3)[C@@H]1/C=C(\C)[C@H](O)CC(=O)C(C)(C)/C=C/[C@@H](C)[C@H]2O`, for which the figures for the inhibition in data set [1] and in data set [2] were 13.4% and 93.9%, respectively. The Activity result in the data set with HEK293 was “Non-Toxic”.

On to `Fc1ccc([C@@H]2CCNC[C@H]2COc2ccc3c(c2)OCO3)cc1` [PAROXETINE], for which, in data set [3], the pIC50 is 4.50. Besides, in data set [2], the inhibition worked out at 48.1%. Moreover, in the data set with HEK293, the Activity entry is recorded as “Non-Toxic”.

On to `CC(=O)O[C@@H]1[C@H](C)/C=C/C(C)(C)C(=O)C[C@@H](O)/C(C)=C/[C@H]2[C@@H](OC(=O)c3ccccc3)[C@H](C)C[C@]12OC(C)=O`, for which the inhibition came to 2.38% in data set [1] and 94.6% in data set [2]. Further, the Activity entry in the data set on HEK293 is “Non-Toxic”.

Consider `CC(=O)O[C@]12C[C@@H](C)[C@H](OC(=O)c3ccccc3)[C@@H]1/C=C(\C)[C@H](O)CC(=O)C(C)(C)[C@@H](O)/C=C(\C)C2=O`, for which the inhibition was determined as 5.67% in data set [1] and 90.7% in data set [2]. Also, in the data set with HEK293, the Activity result was “Non-Toxic”.

On to `CC(=O)O[C@@H]1C[C@@H](OC(C)=O)C(C)(C)/C=C/[C@H](C)[C@H](OC(C)=O)[C@@]2(O)C[C@H](C)[C@H](OC(=O)c3ccccc3)[C@@H]2/C=C/1C` [EUPHORNIN], for which the values for the inhibition in data set [1] and in data set [2] were 8.87% and 88.7%, respectively. The Activity entry in the data set on HEK293 is listed as “Non-Toxic”.

With `CC(=O)O[C@@H]1C[C@@H](O)/C(C)=C/[C@H]2[C@@H](OC(=O)c3ccccc3)[C@H](C)C[C@]2(OC(C)=O)C(=O)/C(C)=C/[C@H](O)C1(C)C`, the inhibition came out at 6.06% in data set [1] and 85.6% in data set [2]. Also, the Activity result with HEK293 is recorded as “Non-Toxic”.

For the molecule `CC(=O)O[C@@H]1C[C@@H](OC(C)=O)C(C)(C)[C@H](O)[C@H]2O[C@@]3(C[C@H](C)[C@H](OC(=O)c4ccccc4)[C@@H]3/C=C/1C)[C@@H](OC(C)=O)[C@H]2C`, the inhibition was found to be 21% in data set [1] and 96.2% in data set [2]. For the same molecule, in the data set with HEK293, the Activity result is listed as “Non-Toxic”.

Turning to `CC(=O)O[C@@H]1[C@H](C)[C@@H](C=C(C)C)C(=O)C[C@@H](OC(=O)c2cccnc2)/C(C)=C/[C@H]2[C@@H](OC(=O)c3ccccc3)[C@H](C)C[C@]12OC(C)=O`, the inhibition worked out at 30.9% in data set [1] and 98.7% in data set [2]. Moreover, the pIC50 in data set [3] is 5.19. In addition, the Activity entry in the data set with HEK293 is “Non-Toxic”.

For `CC(=O)O[C@@H]1C[C@@H](OC(C)=O)C(C)(C)[C@@H](O)[C@H](O)[C@H](C)[C@H](OC(C)=O)[C@@]2(O)C[C@H](C)[C@H](OC(=O)c3ccccc3)[C@@H]2/C=C/1C`, the inhibition in data set [1] was 24.3%; in data set [2], 95.7%. Moreover, the Activity entry with HEK293 is “Non-Toxic”.

As for `CC(=O)O[C@@H]1CC(=O)C(C)(C)/C=C/[C@@H](C)[C@@H](O)[C@@]2(OC(C)=O)C[C@H](C)[C@H](OC(=O)c3ccccc3)[C@@H]2/C=C/1C`, the inhibition in data set [1] was 24.6%; in data set [2], 85.4%. The Activity entry in the data set with HEK293 is given as “Non-Toxic”.

Regarding `CC(=O)O[C@@H]1C[C@@H](OC(C)=O)C(C)(C)/C=C/[C@H](C)[C@@H](O)[C@@]2(OC(C)=O)C[C@@H](C)[C@H](OC(=O)c3ccccc3)[C@@H]2/C=C/1C`, the results for the inhibition in data set [1] and in data set [2] were 21.1% and 97.4%, respectively. Besides, in the data set on HEK293, the Activity entry is given as “Non-Toxic”.

Consider `CC(=O)O[C@@H]1[C@H](C)/C=C/C(C)(C)C(=O)C[C@@H](OC(C)=O)/C(CO)=C/[C@H]2[C@@H](OC(=O)c3ccccc3)[C@H](C)C[C@]12OC(C)=O`, for which the inhibition in data set [1] was 5.38%; in data set [2], 97.5%. The Activity result in the data set on HEK293 is listed as “Non-Toxic”.
